Source: patent US8808737B2 (Endo Pharmaceuticals Inc., priority 2007, dated 2014)

How the values were obtained:
[1] = in vivo; cited from earlier work
[2] = Example 5: correlation of oxymorphone and metabolite plasma AUC / oral clearance with creatinine clearance; format: in vivo, human; details: linear regression
Source text: Creatinine clearance (ClCR) was estimated at screening using the following Cockroft and Gault^8 equation: […]
All pharmacokinetic results are summarized using appropriate descriptive statistics.
The potential association between plasma AUC and creatinine clearance was explored using linear regression techniques and the results are summarized in Table 36 and FIG. 16.

[3] = Example 5: plasma pharmacokinetics of oxymorphone and metabolites after EN3202 in renal impairment vs healthy controls; details: for Mean bioavailability ratio (90% confidence interval) for AUC relative to controls / Mean bioavailability ratio (90% confidence interval) for Cmax relative to controls: ln-transformed; for AUC: AUC in plasma (mean, untransformed); for AUC(0-t): AUCT in plasma (mean, untransformed); for Cmax: Cmax in plasma (mean, untransformed); for half-life: t½, terminal elimination half-life in plasma (mean)
Description: (§1) Attempts were made to match controls with the renal impaired patients with respect to age, gender, and weight. […] Naltrexone (50 mg) was administered on the evening prior to administration of the EN3202 dose.
In order to protect the subjects from potential opioid-related adverse events, a single 50-mg dose of the opioid antagonist ReVia® (naltrexone HCl) was administered at 20:00 the evening prior to administration of test medication. […] Subjects continued fasting until four (4) hours after dose administration. The subjects remained in an upright posture (sitting or standing) for 1 hour after dose administration. All doses were administered with 240 mL of water (room temperature), and the subjects were instructed to drink all the water.
(§2) Plasma and urine pharmacokinetic variables were calculated from the concentration data using standard, non-compartmental methods as outlined in the following table.
All pharmacokinetic results are summarized using appropriate descriptive statistics. Continuous variables were compared between renally impaired and control groups using appropriate parametric statistics. 90% confidence intervals were calculated for the differences or ratios between the renally impaired and control groups. In addition, the association between oral clearance (and other pharmacokinetic variables) and the severity of renal insufficiency (based on creatinine clearance) was explored.

[4] = Pain levels (VAS, categorical scale) vs plasma oxymorphone and 6-hydroxyoxymorphone after a single dose; format: in vivo, human; details: single dose of oxymorphone, FIGS. 1-4
Description: For these tests, pain was measured using a Visual Analog Scale (VAS) or a Categorical Scale. The VAS scales consisted of a horizontal line, 100 mm in length. The left-hand end of the scale (0 mm) was marked with the descriptor “No Pain” and the right-hand end of the scale (100 mm) was marked with the descriptor “Extreme Pain”. Patients indicated their level of pain by making a vertical mark on the line. The VAS score was equal to the distance (in mm) from the left-hand end of the scale to the patient's mark. For the categorical scale, patients completed the following statement, “My pain at this time is” using the scale None=0, Mild=1, Moderate=2, or Severe=3.

[5] = Example 5: urinary excretion of oxymorphone and metabolites after EN3202 in renal impairment; details: for Mean (SD) Percent of Dose Recovered in Urine (0-120 hours): single oral 20-mg dose of EN3202; for half-life: human, urine, oral, 20 mg, Mean urinary elimination half-life
Description: as §1
Each subject was to be instructed to void at the end of each interval (so that each collection interval began with an empty bladder). The void prior to administration of the test medication (time 0) served as the pre-dose blank and was not be included in the collection container.
as §2

[6] = AUC normalized for body weight vs creatinine clearance
[7] = oral clearance vs creatinine clearance
[8] = plasma AUC vs creatinine clearance
[9] = EN3202 20 mg, mild renal impairment
[10] = EN3202 20 mg, moderate renal impairment
[11] = EN3202 20 mg, severe renal impairment
[12] = human, plasma, oral, 20 mg, single 20 mg dose of EN3202, Healthy Controls
[13] = human, plasma, oral, 20 mg, single 20 mg dose of EN3202, Mild Impairment
[14] = human, plasma, oral, 20 mg, single 20 mg dose of EN3202, Moderate Impairment
[15] = human, plasma, oral, 20 mg, single 20 mg dose of EN3202, Severe Impairment
[16] = single 20 mg dose of EN3202, Moderate Impairment
[17] = single 20 mg dose of EN3202, Severe Impairment

Question: With `CN1CC[C@]23c4c5ccc(O)c4O[C@H]2C(=O)CC[C@@]3(O)[C@H]1C5` [Oxymorphone, 14-hydroxydihydromorphinone, reference compound] as the compound, how does the Oral bioavailability [1] read?
Answer: The Oral bioavailability was “about 10%”.

Question: What about the “AUC/wt vs. CLCR: R-square” value [2, 6] of the same compound?
Answer: The value was 0.2898.

Question: What about the “AUC/wt vs. CLCR: Slope” value [2, 6] of the same compound?
Answer: The value was −0.0013.

Question: What about the “CL/F vs. CLCR: R-square” value [2, 7] of the same compound?
Answer: The value was 0.2592.

Question: And the “CL/F vs. CLCR: Slope” value [2, 7]?
Answer: The value was 0.1229.

Question: What about the “AUC vs. CLCR: R-square” value [2, 8] of the same compound?
Answer: Its value is 0.2400.

Question: What about the “AUC vs. CLCR: Slope” value [2, 8] of the same compound?
Answer: The value was −0.1852.

Question: And the “Mean bioavailability ratio (90% confidence interval) for AUC relative to controls” value [3, 9]?
Answer: Its value is 1.2559 (0.8566-1.8414).

Question: What about the “Mean bioavailability ratio (90% confidence interval) for Cmax relative to controls” value [3, 9] of the same compound?
Answer: Its value is 1.3772 (0.9359-2.0265).

Question: What about the “Mean bioavailability ratio (90% confidence interval) for AUC relative to controls” value [3, 10] of the same compound?
Answer: Its value is 1.5722 (1.0723-2.3051).

Question: What about the “Mean bioavailability ratio (90% confidence interval) for Cmax relative to controls” value [3, 10] of the same compound?
Answer: The value was 1.6494 (1.1209-2.4270).

Question: What about the “Mean AUC increased relative to healthy controls” value [3, 11] of the same compound?
Answer: Its value is 1.7 fold.

Question: What about the “Mean bioavailability ratio (90% confidence interval) for AUC relative to controls” value [3, 11] of the same compound?
Answer: The value was 1.6529 (1.1274-2.4234).

Question: What about the “Mean bioavailability ratio (90% confidence interval) for Cmax relative to controls” value [3, 11] of the same compound?
Answer: Its value is 1.8042 (1.2261-2.6549).

Question: What about the “Mean increase in plasma AUC values relative to healthy controls” value ([3]; EN3202 20 mg, subjects with creatinine clearance values, 30 mL/min) of the same compound?
Answer: Its value is “approximately 1.8 fold”.

Question: And the Tmax ([3]; human, plasma, oral, 20 mg)?
Answer: Its Tmax is 3.5 h.

Question: And the AUC [3, 12]?
Answer: Its AUC is 18.9 ng·h/mL.

Question: What about the AUC [3, 13] of the same compound?
Answer: Its AUC is 21.7 ng·h/mL.

Question: And the AUC [3, 14]?
Answer: Its AUC is 27.9 ng·h/mL.

Question: What about the AUC [3, 15] of the same compound?
Answer: Its AUC is 34.5 ng·h/mL.

Question: And the AUC(0-t) [3, 12]?
Answer: The AUC(0-t) was 15.8 ng·h/mL.

Question: And the AUC(0-t) [3, 13]?
Answer: Its AUC(0-t) is 19 ng·h/mL.

Question: And the AUC(0-t) [3, 14]?
Answer: The AUC(0-t) was 26.1 ng·h/mL.

Question: And the AUC(0-t) [3, 15]?
Answer: The AUC(0-t) was 29.7 ng·h/mL.

Question: And the Cmax [3, 12]?
Answer: Its Cmax is 1.16 ng/mL.

Question: What about the Cmax [3, 13] of the same compound?
Answer: The Cmax was 1.47 ng/mL.

Question: And the Cmax [3, 14]?
Answer: The Cmax was 1.75 ng/mL.

Question: And the Cmax [3, 15]?
Answer: The Cmax was 2.04 ng/mL.

Question: And the half-life [3, 12]?
Answer: Its half-life is 13.5 h.

Question: And the half-life [3, 13]?
Answer: The half-life was 12.4 h.

Question: And the half-life [3, 15]?
Answer: The half-life was 13.3 h.

Question: What about the “CLo, clearance after oral administration (mean)” value (from here on “CLo, clearance”) ([3]; single 20 mg dose of EN3202, Healthy Controls) of the same compound?
Answer: The value was 22.07 L/min.

Question: And the “CLo, clearance” value ([3]; single 20 mg dose of EN3202, Mild Impairment)?
Answer: Its value is 16.14 L/min.

Question: And the “CLo, clearance” value [3, 16]?
Answer: The value was 13.53 L/min.

Question: And the “t½, terminal elimination half-life in plasma (mean)” value [3, 16]?
Answer: The value was 9.92 h.

Question: What about the “AUC in plasma (mean, untransformed)” value [3, 17] of the same compound?
Answer: Its value is 32.46 ng·h/mL.

Question: What about the “CLo, clearance” value [3, 17] of the same compound?
Answer: Its value is 13.79 L/min.

Question: What about the “Tmax in plasma (median)” value [3, 17] of the same compound?
Answer: Its value is 2.0 h.

Question: And the “Relation between pain relief and blood plasma level” value [4]?
Answer: Its value is “there is a correlation”.

Question: What about the “Mean percentage of the administered dose excreted in the urine” value ([5]; EN3202 20 mg, 0-120 hours, severe renal impairment) of the same compound?
Answer: Its value is 0.38%.

Question: And the “Mean percentage of the dose excreted in the urine unchanged, reduced relative to healthy controls” value [5, 11]?
Answer: The value was “approximately 50%”.

Question: What about the “Mean (SD) Percent of Dose Recovered in Urine (0-120 hours)” value (shortened to “Mean (SD) Percent of Dose Recovered”) ([5]; healthy controls) of the same compound?
Answer: The value was 0.77 (0.36) %.

Question: And the half-life ([5]; EN3202 20 mg, healthy controls)?
Answer: The half-life was 12.5 h.

Question: What about the half-life [5, 9] of the same compound?
Answer: The half-life was 12.1 h.

Question: What about the half-life [5, 10] of the same compound?
Answer: The half-life was 13.9 h.

Question: What about the half-life [5, 11] of the same compound?
Answer: The half-life was 21 h.

Question: And the “Mean (SD) Percent of Dose Recovered” value ([5]; subjects with mild renal impairment)?
Answer: Its value is 1.37 (2.10) %.

Question: And the “Mean (SD) Percent of Dose Recovered” value ([5]; subjects with moderate renal impairment)?
Answer: Its value is 0.66 (0.29) %.

Question: What about the “Mean (SD) Percent of Dose Recovered” value ([5]; subjects with severe renal impairment) of the same compound?
Answer: The value was 0.38 (0.19) %.
